Active and inactive are the calls of the source. The rule behind the calls is not given here. Bounds are passed on as bounds.

The target in the assay is Ubiquitin carboxyl-terminal hydrolase 10 (Homo sapiens) (UniProt Q14694). Kind of assay: primary hit verification, biochemical, ubiquitin-specific protease 10 deubiquitylase inhibitors, concentration-effect titration (AID 1645863).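 Note: potency values describe inhibition of USP10 cleavage of a fluorogenic ubiquitin substrate.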 The settings on record: USP10 deubiquitinase enzymatic assay.
Chain of Ubiquitin carboxyl-terminal hydrolase 10 (Homo sapiens) (Q14694 whole entry, looked up): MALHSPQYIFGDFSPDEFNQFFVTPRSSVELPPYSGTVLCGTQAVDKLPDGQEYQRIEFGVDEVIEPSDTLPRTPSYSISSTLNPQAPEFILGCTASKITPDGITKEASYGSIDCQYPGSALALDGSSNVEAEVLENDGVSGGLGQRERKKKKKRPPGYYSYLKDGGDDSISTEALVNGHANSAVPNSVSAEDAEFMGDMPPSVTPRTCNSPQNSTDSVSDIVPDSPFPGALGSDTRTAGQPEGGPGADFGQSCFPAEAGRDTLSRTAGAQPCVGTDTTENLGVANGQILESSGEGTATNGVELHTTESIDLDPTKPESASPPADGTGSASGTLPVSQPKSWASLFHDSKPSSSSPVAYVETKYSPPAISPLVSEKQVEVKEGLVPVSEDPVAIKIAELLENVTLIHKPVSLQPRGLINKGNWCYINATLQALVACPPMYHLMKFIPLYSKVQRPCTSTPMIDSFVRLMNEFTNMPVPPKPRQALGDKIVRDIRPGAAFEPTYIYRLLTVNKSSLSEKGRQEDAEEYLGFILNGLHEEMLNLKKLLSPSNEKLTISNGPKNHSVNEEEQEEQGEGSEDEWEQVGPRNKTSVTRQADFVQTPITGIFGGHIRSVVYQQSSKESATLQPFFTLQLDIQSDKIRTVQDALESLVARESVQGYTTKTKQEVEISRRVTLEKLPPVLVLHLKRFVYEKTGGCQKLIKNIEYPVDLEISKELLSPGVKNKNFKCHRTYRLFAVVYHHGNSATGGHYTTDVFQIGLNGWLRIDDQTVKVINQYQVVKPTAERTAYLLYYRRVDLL
Regarding `Cc1ccc(-n2nc(C)c3c2NC(=O)CC3C(=O)c2cc3ccccc3o2)cc1C` (stereo unspecified), the IC50 is > 40 µM (inactive). Turning to `CC(C)CCCCCCCCCCC(=O)N(C)[C@H](CO)C(=O)N[C@H](C)C(=O)NCC(=O)N(C)C1C(=O)N[C@@H](C)C(=O)NC(C(=O)O)Cc2ccc(O)c(c2)-c2cc1ccc2O` (stereo partly specified), the IC50 is 34.4 µM. Consider `O=C(NC1CCCC1)c1ccc(Cn2c(=O)c3ccccc3n(Cc3cc(=O)n4ccccc4n3)c2=O)cc1`, for which the IC50 is > 40 µM (inactive). With `COc1cc(NC(=O)Cc2ccccc2)ccc1NC(=O)c1cc2ccccc2o1` the figure was 28.1 µM; with `O=C(CCCC(=O)N(c1ccc2c(c1)OCCO2)C(C(=O)NC1CCCCC1)c1ccc(F)cc1)Nc1ccccn1` (stereo unspecified), 27.6 µM. As for `NS(=O)(=O)c1ccc(CNC(=O)c2ccc(Cl)c(S(=O)(=O)Nc3cc(Cl)ccc3Cl)c2)cc1`, the IC50 is 26.4 µM. The value for `O=C(Nc1cccc(Br)c1)c1cc(-c2cccnc2)n[nH]1` was 19.9 µM. For the compound `O=C(c1cccnc1)N1CCCC(Cc2cc(-c3ncc[nH]3)ncn2)C1` (stereo unspecified), the IC50 was > 40 µM (inactive).

Regarding `COc1ccc(/C=C/C(=O)Nc2nc3n(n2)C(c2ccccc2)CC(=O)N3)cc1` (stereo unspecified), the IC50 was > 40 µM (inactive). The value for `O=C(Cn1c(=O)[nH]c2c(-c3ccc(F)cc3)c[nH]c2c1=O)NCc1ccc(F)cc1` was > 40 µM (inactive); that for `CCCC(O)CCCCCCCc1cc(O)cc(O)c1C(=O)OC(CCC)CCCCCCCc1cc(O)cc(O)c1` (stereo unspecified) was 21.8 µM; that for `COc1ccc(-c2onc(C)c2C)cc1S(=O)(=O)NCc1ccc(F)cc1` was > 40 µM (inactive).

Turning to `O=C(Cn1c(=O)n(CC2CCC(C(=O)NCCc3ccccc3)CC2)c(=O)c2ccccc21)NCc1ccco1` (stereo unspecified), the IC50 is 22.7 µM.

Consider `CN(C(=O)C1(c2ccccc2)CC1)c1nc2c(s1)CCc1occc1-2`, for which the IC50 is > 40 µM (inactive). As to `CCOc1ccc2c(c1)c(=O)c(C(=O)c1ccccc1)cn2CC(=O)Nc1ccccc1`, the IC50 was > 40 µM (inactive). For `COc1ccc(NC(=O)Cn2cc(C(=O)c3ccc(C)cc3)c(=O)c3ccccc32)cc1`, the IC50 is 30.1 µM. With `CCCCCCCCCC(CCCCCCCCCC(=O)O)O[C@H]1O[C@@H](COC(C)=O)[C@H](O)[C@@H](OC(=O)CC(=O)O)[C@H]1O` (stereo partly specified) the figure was 30.6 µM; with `CCC(=O)Nc1nc2cc(NC(=O)Nc3cccc(C)c3)ccc2s1`, 18.8 µM; with `Cc1cc(=O)n(C)c2c(O)c3c(cc12)c(C)cc(=O)n3C`, > 40 µM (inactive).

Regarding `COc1cccc(NC(=O)Cn2cc(C(=O)c3ccc(C)cc3)c(=O)c3cc(Cl)ccc32)c1`, the half-maximal inhibitory concentration (IC50) was 11.2 µM. With `Cc1ccc(NC(=O)c2cc(-c3ccncc3)n[nH]2)cc1Cl` the figure was > 40 µM (inactive); with `CCCCCCCC1OC(=O)Cc2cc(O)c(O)c(O)c21` (stereo unspecified), 3.3 µM; with `Cc1ccc(-c2nn(C(C)(C)C)c3ncnc(NS(=O)(=O)c4ccc(Cl)cc4)c23)cc1`, > 40 µM (inactive).

In the case of `O=C(O)c1ccccc1C(=O)Nc1ccc(SC(C(=O)Nc2cccc(Cl)c2)c2ccccc2)cc1` (stereo unspecified), the half-inhibitory concentration (IC50) was 14.2 µM.

Take `COc1cccc2c1NC(=O)C21CCN(C(=O)Nc2cccc3ccccc23)CC1`: the IC50 was > 40 µM (inactive). The value for `O=C(CSc1nnc2n(-c3ccccc3)c(=O)c3ccccc3n12)c1ccc(F)cc1` was 12.9 µM; that for `O=C(Oc1ccc2cc(Br)ccc2c1)c1ccncc1` was > 40 µM (inactive). As for `O=C(CCCn1c(=O)c2ccccc2n(CC(=O)NCc2ccccc2Cl)c1=O)NCc1ccc2c(c1)OCO2`, the IC50 is 8.88 µM. The value for `O=C(c1cccnc1)N1CCN(c2cc(-c3ccccc3)[nH]n2)CC1` was > 40 µM (inactive); that for `O=C(NCc1ccco1)c1ccc(Cn2c(=O)c3sccc3n(Cc3cc(=O)n4ccccc4n3)c2=O)cc1` was > 40 µM (inactive). Consider `COc1ccccc1-c1nc(-c2cn(-c3cccc(Cl)c3)nn2)no1`, for which the IC50 was 25.6 µM.

Usually IC50 stands for the concentration at which inhibition is half-maximal.

(Values after PubChem BioAssay AID1645863 (Buhrlage Lab, Dana-Farber Cancer Institute and Novartis …, 2021).)
